Data: PMC8468504, “Marine Transcriptomics Analysis for the Identification of New Antimicrobial Peptides” (Marine Drugs, 2021)
Ends that are not written are not given here.

Key:
Format in all cases: cell-based
[1] = tested on: Salmonella typhimurium; details: 16 h; for MIC: murium
Protocol: (§1) The antibacterial activity of peptides β-Pte20, β-Pte17, β-Pte13 and β-Pte10 from pteroicidin B and γ-Pte20, γ-Pte17, γ-Pte13 and γ-Pte10 from pteroicidin C was evaluated on several bacteria as presented in Table 3. All peptides were solubilized in sterilized water. The minimum inhibitory concentrations (MICs) were determined according to the liquid growth inhibition test following the protocol established by Hetru and Bulet and used for the study of α-pteroicidins. Briefly, 10 μL of peptide solution were added to 100 μL of bacterial suspension at a starting OD600 of 0.001 (~10^5 to 10^6 CFU/mL according to strain) and incubated in 96-well microplates. Bacterial growth was assessed by optical density measurement at 595 nm after 16 h of incubation. All the tests were performed three times, and each peptide concentration between 0.1 and 50 µM was tested in triplicate. MICs were expressed in µM as an [a]–[b] concentration interval where [a] was the last concentration with bacterial growth and [b] was the first concentration with 100% bacterial growth inhibition. MBCs (minimal bactericidal concentrations) were expressed in µM as an [a]–[b] concentration interval where [a] was the last concentration with bacterial growth and [b] was the first concentration that killed 100% of the bacteria, determined after the plating on agar plates.

[2] = tested on: Listeria monocytogenes; details: 16 h
Protocol: as §1

[3] = tested on: Vibrio vulnificus; details: 16 h
Protocol: as §1

[4] = tested on: Staphylococcus aureus; details: 16 h
Protocol: as §1

[5] = tested on: Escherichia coli; details: 16 h
Protocol: as §1

[6] = tested on: Aeromonas salmonicida; details: 16 h
Protocol: as §1

[7] = tested on: Vibrio aestuarianus; details: 16 h
Protocol: as §1

[8] = tested on: Vibrio splendidus; details: 16 h
Protocol: as §1

[9] = tested on: human red blood cells; details: 200 µM
Protocol: The hemolytic activity of peptides β-Pte20, β-Pte17, β-Pte13 and β-Pte10 from pteroicidin B and γ-Pte20, γ-Pte17, γ-Pte13 and γ-Pte10 from pteroicidin C was evaluated on human red blood cells (RBCs) following the protocol previously described in [96] and used for α-Pte in a previous study. RBCs were obtained from nine blood samples from French blood donors thanks to the support of the Etablissement Français du Sang (EFS). RBCs were rinsed twice in PBS and then diluted to obtain a 1% erythrocyte solution (~5 × 10^6 cells determined using a Scepter™ 2.0 cell counter). Ninety μL of erythrocyte solution were incubated with 90 μL of peptide solution at concentrations ranging from 5 to 200 μM, for one hour at 37 °C without shaking. The percentage of hemolysis was determined by optical density measurement at 415 nm. The experiment was performed in triplicate. The 0% hemolysis and 100% hemolysis controls were determined in PBS and 1% Triton X-100, respectively.

[10] = tested on: Enterococcus faecalis; details: 16 h
Protocol: as §1

## FFKRLKNAFKSARQAWRDYK [β-Pte20]
[1]
  MBC: 10 to 25 µM
  MIC: 10 to 25 µM
[2]
  MBC: 5 to 10 µM
  MIC: 1 to 5 µM
[3]
  MBC: 5 to 10 µM
  MIC: 5 to 10 µM
[4]
  MBC: 10 to 25 µM
  MIC: 1 to 5 µM
[5]
  MBC: 5 to 10 µM
  MIC: 1 to 5 µM
[6]
  MBC: 1 to 5 µM
  MIC: 1 to 5 µM
[7]
  MBC: 5 to 10 µM
  MIC: 1 to 5 µM
[8]
  MBC: 5 to 10 µM
  MIC: 1 to 5 µM

## FFRHLKSLWKGAK [γ-Pte13]
[5]
  MBC: 10 to 25 µM
  MIC: 10 to 25 µM
[6]
  MIC: 25 to 50 µM

## FFRHLKSLWK [γ-Pte10]
[5]
  MBC: 25 to 50 µM
  MIC: 25 to 50 µM
[6]
  MIC: 25 to 50 µM

## FFRHLKSLWKGAKAAFR [γ-Pte17]
[9]
  hemolysis: 43%
[1]
  MBC: 5 to 10 µM
  MIC: 5 to 10 µM
[2]
  MBC: 5 to 10 µM
  MIC: 1 to 5 µM
[3]
  MBC: 10 to 25 µM
  MIC: 10 to 25 µM
[4]
  MBC: 1 to 5 µM
  MIC: 1 to 5 µM
[5]
  MBC: 10 to 25 µM
  MIC: 1 to 5 µM
[6]
  MBC: 1 to 5 µM
  MIC: 1 to 5 µM
[7]
  MBC: 5 to 10 µM
  MIC: 5 to 10 µM
[10]
  MIC: 1 to 5 µM
[8]
  MBC: 10 to 25 µM
  MIC: 10 to 25 µM

## FFRHLKSLWKGAKAAFRGAR [γ-Pte20]
[9]
  hemolysis: 19%
[1]
  MBC: 5 to 10 µM
  MIC: 5 to 10 µM
[2]
  MBC: 5 to 10 µM
  MIC: 1 to 5 µM
[3]
  MBC: 10 to 25 µM
  MIC: 10 to 25 µM
[4]
  MBC: 1 to 5 µM
  MIC: 1 to 5 µM
[5]
  MBC: 1 to 5 µM
  MIC: 1 to 5 µM
[6]
  MBC: 1 to 5 µM
  MIC: 1 to 5 µM
[7]
  MBC: 10 to 25 µM
  MIC: 5 to 10 µM
[10]
  MIC: 1 to 5 µM
[8]
  MBC: 5 to 10 µM
  MIC: 5 to 10 µM

## FFKRLKNAFKSARQAWR [β-Pte17]
[1]
  MBC: 10 to 25 µM
  MIC: 10 to 25 µM
[2]
  MBC: 25 to 50 µM
  MIC: 5 to 10 µM
[3]
  MBC: 10 to 25 µM
  MIC: 10 to 25 µM
[4]
  MBC: 25 to 50 µM
  MIC: 10 to 25 µM
[5]
  MBC: 1 to 5 µM
  MIC: 1 to 5 µM
[6]
  MBC: 5 to 10 µM
  MIC: 5 to 10 µM
[7]
  MBC: 10 to 25 µM
  MIC: 10 to 25 µM
[8]
  MBC: 10 to 25 µM
  MIC: 10 to 25 µM
